From patent publication US10131652B2, “Pyrimidinyloxy benzene derivatives as herbicides” (E. I. DU PONT DE NEMOURS AND COMPANY, priority 2014, dated 2018) come the findings set out here.

Format in all cases: in vivo
Experiment [1] deals with small-flower umbrella sedge (Cyperus difformis). Nature of the experiment: Test D flooded paddy test plant response. As to conditions: Flood (flooded paddy test), visual rating on scale 0 to 100 (0 no effect, 100 complete control), 13 to 15 days. The text has this:
(§1) Plant species in the flooded paddy test consisted of rice (Oryza sativa), small-flower umbrella sedge (Cyperus difformis), ducksalad (Heteranthera limosa), and bamyardgrass (Echinochloa crus-galli) grown to the 2-leaf stage for testing. At time of treatment, test pots were flooded to 3 cm above the soil surface, treated by application of test compounds directly to the paddy water, and then maintained at that water depth for the duration of the test. Treated plants and controls were maintained in a greenhouse for 13 to 15 days, after which time all species were compared to controls and visually evaluated. Plant response ratings, summarized in Table D, are based on a scale of 0 to 100 where 0 is no effect and 100 is complete control. A dash (-) response means no test result.

Experiment [2] concerns barnyardgrass (Echinochloa crus-galli). As to the kind of experiment: Test D flooded paddy test plant response. The following applies: Flood (flooded paddy test), visual rating on scale 0 to 100 (0 no effect, 100 complete control), 13 to 15 days.
Description: as §1

Experiment [3] deals with rice (Oryza sativa). Nature of the experiment: Test D flooded paddy test plant response. As to conditions: Flood (flooded paddy test), visual rating on scale 0 to 100 (0 no effect, 100 complete control), 13 to 15 days.
Description: as §1

The test system of experiment [4] is ducksalad (Heteranthera limosa). Nature of the experiment: Test D flooded paddy test plant response. The following applies: Flood (flooded paddy test), visual rating on scale 0 to 100 (0 no effect, 100 complete control), 13 to 15 days.
Description: as §1

For experiment [5], the system named is Russian thistle (Salsola iberica). As to the kind of experiment: Test E pre-/postemergence plant response. As to conditions: scale 0 to 100. An outline of the steps:
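Pre-emergence: seeds sown in silt loam soil and sprayed with test chemicals in a non-phytotoxic solvent/surfactant mix. Post-emergence: plants at 2–18 cm (1- to 4-leaf stage) in peat/vermiculite medium treated with the same formulation. Visual rating versus controls after 7–21 days, 0 (no effect) to 100 (complete control).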

The structures appear in SMILES notation.

With `Fc1ccc(Oc2ncc(Cl)cn2)c(-c2cc(C(F)(Cl)Cl)on2)c1` [Compound 221], the “Plant response rating, Sedge, Umbrella” value is recorded as 80 in experiment [1] (62 g ai/ha) and 95 in experiment [1] (250 g ai/ha). For the same compound, the entries for the “Plant response rating, Barnyardgrass” value in experiment [2] (62 g ai/ha) and in experiment [2] (250 g ai/ha) were 40 and 60, respectively. Besides, the figures for the “Plant response rating, Rice” value in experiment [3] (62 g ai/ha) and in experiment [3] (250 g ai/ha) were 15 and 40, respectively. Further, the “Plant response rating, Ducksalad” value in experiment [4] (62 g ai/ha) was determined as 80; in experiment [4] (250 g ai/ha) it was 90.

Regarding `Fc1cccc(Oc2ncc(Br)cn2)c1-c1cc(C(F)F)no1` [Compound 145, 5-bromo-2-[2-[3-(difluoromethyl)-5-isoxazolyl]-3-fluorophenoxy]pyrimidine], the “Plant response rating, Sedge, Umbrella” value in experiment [1] (31 g ai/ha) was 60; in experiment [1] (62 g ai/ha), 75; in experiment [1] (125 g ai/ha), 90; in experiment [1] (250 g ai/ha), 90. Moreover, the “Plant response rating, Barnyardgrass” value was determined as 0 in experiment [2] (31 g ai/ha), 0 in experiment [2] (62 g ai/ha), 0 in experiment [2] (125 g ai/ha) and 35 in experiment [2] (250 g ai/ha). For the same compound, the “Plant response rating, Rice” value in experiment [3] (31 g ai/ha) turned out to be 0; in experiment [3] (62 g ai/ha), 15; in experiment [3] (125 g ai/ha) it was 15; in experiment [3] (250 g ai/ha), 35. Besides, the “Plant response rating, Ducksalad” value in experiment [4] (31 g ai/ha) stood at 80; in experiment [4] (62 g ai/ha), 85; in experiment [4] (125 g ai/ha), 95; in experiment [4] (250 g ai/ha), 95. For the same compound, the “Plant response rating, Russian Thistle” value in experiment [5] (16 g ai/ha Postemergence) stood at 80; in experiment [5] (16 g ai/ha Preemergence), 0; in experiment [5] (31 g ai/ha Postemergence), 85; in experiment [5] (31 g ai/ha Preemergence), 10; in experiment [5] (62 g ai/ha Postemergence) it was 90; in experiment [5] (62 g ai/ha Preemergence) it was 60. The “Plant response rating, Russian Thistle” value in experiment [5] (125 g ai/ha Postemergence) and in experiment [5] (125 g ai/ha Preemergence) was 100 throughout.

As to `CC(F)(F)c1cc(-c2ccccc2Oc2ncc(Cl)cn2)on1` [Compound 178], the “Plant response rating, Sedge, Umbrella” value in experiment [1] (31 g ai/ha) is given as 30; in experiment [1] (62 g ai/ha), 60; in experiment [1] (125 g ai/ha) it was 60; in experiment [1] (250 g ai/ha) it was 75. The “Plant response rating, Barnyardgrass” value in experiment [2] (31 g ai/ha), in experiment [2] (62 g ai/ha), in experiment [2] (125 g ai/ha) and in experiment [2] (250 g ai/ha) was 0 each time. For the same compound, the “Plant response rating, Rice” value in experiment [3] (31 g ai/ha), in experiment [3] (62 g ai/ha), in experiment [3] (125 g ai/ha) and in experiment [3] (250 g ai/ha) was 0 throughout. Besides, the “Plant response rating, Ducksalad” value in experiment [4] (31 g ai/ha) is given as 40; in experiment [4] (62 g ai/ha), 65; in experiment [4] (125 g ai/ha), 70; in experiment [4] (250 g ai/ha), 70.

With `Fc1cccc(Oc2ncc(Cl)cn2)c1-c1cc(C(F)F)no1` [Compound 144, 5-chloro-2-[2-[3-(difluoromethyl)-5-isoxazolyl]-3-fluorophenoxy]pyrimidine], the “Plant response rating, Sedge, Umbrella” value was determined as 65 in experiment [1] (31 g ai/ha), 80 in experiment [1] (62 g ai/ha), 95 in experiment [1] (125 g ai/ha) and 95 in experiment [1] (250 g ai/ha). Besides, the “Plant response rating, Barnyardgrass” value stood at 0 in experiment [2] (31 g ai/ha), 0 in experiment [2] (62 g ai/ha), 15 in experiment [2] (125 g ai/ha) and 35 in experiment [2] (250 g ai/ha). The “Plant response rating, Rice” value in experiment [3] (31 g ai/ha) came out at 0; in experiment [3] (62 g ai/ha), 15; in experiment [3] (125 g ai/ha) it was 25; in experiment [3] (250 g ai/ha), 40. Further, the “Plant response rating, Ducksalad” value came out at 75 in experiment [4] (31 g ai/ha), 85 in experiment [4] (62 g ai/ha), 90 in experiment [4] (125 g ai/ha) and 100 in experiment [4] (250 g ai/ha). Also, the “Plant response rating, Russian Thistle” value in experiment [5] (16 g ai/ha Postemergence) is on record as 85; in experiment [5] (16 g ai/ha Preemergence) it was 15; in experiment [5] (31 g ai/ha Postemergence), 90; in experiment [5] (31 g ai/ha Preemergence), 65; in experiment [5] (62 g ai/ha Postemergence), 95; in experiment [5] (62 g ai/ha Preemergence), 100. Also, the “Plant response rating, Russian Thistle” value in experiment [5] (125 g ai/ha Postemergence) worked out at 98; in experiment [5] (125 g ai/ha Preemergence), 100.

On to `N#Cc1cccc(Oc2ncc(Cl)cn2)c1-c1cc(C(F)F)on1` [Compound 180], for which the “Plant response rating, Sedge, Umbrella” value stood at 0 in experiment [1] (31 g ai/ha), 50 in experiment [1] (62 g ai/ha), 75 in experiment [1] (125 g ai/ha) and 80 in experiment [1] (250 g ai/ha). The “Plant response rating, Barnyardgrass” value in experiment [2] (31 g ai/ha) came out at 0; in experiment [2] (62 g ai/ha) it was 0; in experiment [2] (125 g ai/ha), 10; in experiment [2] (250 g ai/ha), 10. Moreover, the “Plant response rating, Rice” value in experiment [3] (31 g ai/ha), in experiment [3] (62 g ai/ha), in experiment [3] (125 g ai/ha) and in experiment [3] (250 g ai/ha) was 0 each time. Further, the “Plant response rating, Ducksalad” value is reported as 0 in experiment [4] (31 g ai/ha), 0 in experiment [4] (62 g ai/ha), 75 in experiment [4] (125 g ai/ha) and 75 in experiment [4] (250 g ai/ha).

Consider `FCc1cc(-c2ccccc2Oc2ncc(Cl)cn2)no1` [Compound 32, 5-chloro-2-[2-[5-(fluoromethyl)-3-isoxazolyl]phenoxy]pyrimidine], for which the “Plant response rating, Sedge, Umbrella” value is 0 in experiment [1] (31 g ai/ha), 40 in experiment [1] (62 g ai/ha), 65 in experiment [1] (125 g ai/ha) and 90 in experiment [1] (250 g ai/ha). The “Plant response rating, Barnyardgrass” value in experiment [2] (31 g ai/ha) turned out to be 0; in experiment [2] (62 g ai/ha), 0; in experiment [2] (125 g ai/ha), 10; in experiment [2] (250 g ai/ha) it was 20. For the same compound, the “Plant response rating, Rice” value in experiment [3] (31 g ai/ha) was 0; in experiment [3] (62 g ai/ha), 0; in experiment [3] (125 g ai/ha), 0; in experiment [3] (250 g ai/ha), 15. The “Plant response rating, Ducksalad” value in experiment [4] (31 g ai/ha) is given as 0; in experiment [4] (62 g ai/ha) it was 60; in experiment [4] (125 g ai/ha) it was 65; in experiment [4] (250 g ai/ha), 95.

As to `FC(F)c1cc(-c2ccccc2Oc2ncc(Cl)cn2)on1` [Compound 53, 5-chloro-2-[2-[3-(difluoromethyl)-5-isoxazolyl]phenoxy]pyrimidine], the “Plant response rating, Sedge, Umbrella” value was 0 in experiment [1] (31 g ai/ha), 0 in experiment [1] (62 g ai/ha), 70 in experiment [1] (125 g ai/ha) and 75 in experiment [1] (250 g ai/ha). In addition, the “Plant response rating, Barnyardgrass” value in experiment [2] (31 g ai/ha), in experiment [2] (62 g ai/ha), in experiment [2] (125 g ai/ha) and in experiment [2] (250 g ai/ha) was 0 in each case. Further, the “Plant response rating, Rice” value in experiment [3] (31 g ai/ha), in experiment [3] (62 g ai/ha), in experiment [3] (125 g ai/ha) and in experiment [3] (250 g ai/ha) was 0 each time. The “Plant response rating, Ducksalad” value in experiment [4] (31 g ai/ha) is reported as 40; in experiment [4] (62 g ai/ha) it was 50; in experiment [4] (125 g ai/ha), 80; in experiment [4] (250 g ai/ha), 80.
